Experiments:
AXL = molecular target: T1, AXL (Homo sapiens, UniProt P30530); experiment: Filter-binding radiometric kinase activity assay (KinaseProfiler, Eurofins); format: biochemical; settings: 1 µM compound; read-out: % Residual enzymatic activity at 1 µM AXL
T1 construct: purchased Eurofins Discovery (Kinase Profiler service)
T1 sequence (P30530 26-894): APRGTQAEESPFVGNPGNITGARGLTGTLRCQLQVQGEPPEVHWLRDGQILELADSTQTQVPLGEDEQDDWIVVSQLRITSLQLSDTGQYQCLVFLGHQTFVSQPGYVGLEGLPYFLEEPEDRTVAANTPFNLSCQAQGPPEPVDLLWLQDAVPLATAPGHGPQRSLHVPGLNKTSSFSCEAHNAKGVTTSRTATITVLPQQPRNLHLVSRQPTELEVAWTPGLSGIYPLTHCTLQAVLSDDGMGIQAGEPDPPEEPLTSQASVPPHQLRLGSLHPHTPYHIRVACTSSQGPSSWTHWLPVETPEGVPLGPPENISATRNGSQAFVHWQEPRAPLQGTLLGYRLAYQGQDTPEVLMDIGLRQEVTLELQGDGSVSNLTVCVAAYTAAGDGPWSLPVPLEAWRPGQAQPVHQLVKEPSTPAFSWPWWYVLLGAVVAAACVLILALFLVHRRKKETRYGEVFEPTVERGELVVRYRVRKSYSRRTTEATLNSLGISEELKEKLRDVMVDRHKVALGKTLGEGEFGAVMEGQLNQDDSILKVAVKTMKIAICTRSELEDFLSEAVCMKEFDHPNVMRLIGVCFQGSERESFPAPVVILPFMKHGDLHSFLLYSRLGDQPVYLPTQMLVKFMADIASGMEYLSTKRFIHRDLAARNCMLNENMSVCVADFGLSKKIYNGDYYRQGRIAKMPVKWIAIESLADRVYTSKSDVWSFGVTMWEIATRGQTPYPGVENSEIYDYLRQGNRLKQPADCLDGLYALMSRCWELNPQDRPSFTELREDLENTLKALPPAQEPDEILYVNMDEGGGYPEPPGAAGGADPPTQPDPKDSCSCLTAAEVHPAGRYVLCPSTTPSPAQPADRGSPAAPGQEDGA
Method: (§1) Filter-binding radiometric kinase activity assay (Kinase Profiler™) from Eurofins Discovery was used to determine the % of inhibition and/or IC50 values. […] The reaction is initiated by the addition of the Mg/ATP mixture. After incubation for 40 minutes at room temperature, the reaction is stopped by the addition of phosphoric acid to a concentration of 0.5%. 10 µL of the reaction is then spotted onto a P30 filter mat and washed four times for 4 minutes in 0.425% phosphoric acid and once in methanol prior to drying and scintillation counting. The IC50 values were derived by fitting a sigmoidal dose-response curve to a plot of assay readout over inhibitor concentration. All fits were computed with the GraphPad Prism Software (San Diego, CA, United States of America). Ki values were derived from IC5o values using Cheng Prusoff equation (Cheng Y et al., Biochem Pharmacol 22(23):3099-3108, 1973).

MET = molecular target: T2, MET (Homo sapiens, UniProt P08581); experiment: as above; format: biochemical; settings: 1 µM compound; read-out: % Residual enzymatic activity at 1 µM MET
T2 construct: purchased Eurofins Discovery (Kinase Profiler service)
Method: as §1

Mer = molecular target: T3, Mer (Homo sapiens, UniProt Q12866); experiment: as above; format: biochemical; settings: 1 µM compound; read-out: % Residual enzymatic activity at 1 µM Mer
T3 construct: purchased Eurofins Discovery (Kinase Profiler service)
T3 sequence (Q12866 21-999): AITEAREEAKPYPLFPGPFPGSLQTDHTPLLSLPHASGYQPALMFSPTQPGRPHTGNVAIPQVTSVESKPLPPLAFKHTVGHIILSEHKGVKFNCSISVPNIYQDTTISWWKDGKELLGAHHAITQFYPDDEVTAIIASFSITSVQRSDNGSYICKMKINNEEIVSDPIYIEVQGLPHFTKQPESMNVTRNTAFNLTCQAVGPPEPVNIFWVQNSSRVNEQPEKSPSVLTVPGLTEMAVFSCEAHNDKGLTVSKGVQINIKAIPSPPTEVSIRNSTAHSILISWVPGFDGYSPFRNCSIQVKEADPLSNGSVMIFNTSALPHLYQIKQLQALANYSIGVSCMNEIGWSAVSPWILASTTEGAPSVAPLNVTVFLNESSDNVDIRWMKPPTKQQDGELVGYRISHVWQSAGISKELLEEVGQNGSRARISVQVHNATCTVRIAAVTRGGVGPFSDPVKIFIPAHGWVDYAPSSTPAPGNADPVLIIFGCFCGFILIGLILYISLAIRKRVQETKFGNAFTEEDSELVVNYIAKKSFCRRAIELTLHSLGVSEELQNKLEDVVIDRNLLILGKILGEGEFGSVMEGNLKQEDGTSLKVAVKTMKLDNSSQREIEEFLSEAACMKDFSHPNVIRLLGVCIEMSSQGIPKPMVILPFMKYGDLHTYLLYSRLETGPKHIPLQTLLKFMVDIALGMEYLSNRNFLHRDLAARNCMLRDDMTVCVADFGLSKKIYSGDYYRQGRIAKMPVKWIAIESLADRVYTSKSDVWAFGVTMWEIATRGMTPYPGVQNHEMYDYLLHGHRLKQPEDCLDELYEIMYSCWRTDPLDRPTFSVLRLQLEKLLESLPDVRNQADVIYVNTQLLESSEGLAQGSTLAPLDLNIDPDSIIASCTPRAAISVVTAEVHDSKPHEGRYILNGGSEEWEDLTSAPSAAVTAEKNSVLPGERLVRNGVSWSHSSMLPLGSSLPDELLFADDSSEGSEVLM
Method: as §1

TYRO3 = molecular target: T4, TYRO3 (Homo sapiens, UniProt Q06418); experiment: as above; format: biochemical; settings: 1 µM compound; read-out: % Residual enzymatic activity at 1 µM TYRO3
T4 construct: purchased Eurofins Discovery (Kinase Profiler service)
T4 sequence (Q06418 41-890): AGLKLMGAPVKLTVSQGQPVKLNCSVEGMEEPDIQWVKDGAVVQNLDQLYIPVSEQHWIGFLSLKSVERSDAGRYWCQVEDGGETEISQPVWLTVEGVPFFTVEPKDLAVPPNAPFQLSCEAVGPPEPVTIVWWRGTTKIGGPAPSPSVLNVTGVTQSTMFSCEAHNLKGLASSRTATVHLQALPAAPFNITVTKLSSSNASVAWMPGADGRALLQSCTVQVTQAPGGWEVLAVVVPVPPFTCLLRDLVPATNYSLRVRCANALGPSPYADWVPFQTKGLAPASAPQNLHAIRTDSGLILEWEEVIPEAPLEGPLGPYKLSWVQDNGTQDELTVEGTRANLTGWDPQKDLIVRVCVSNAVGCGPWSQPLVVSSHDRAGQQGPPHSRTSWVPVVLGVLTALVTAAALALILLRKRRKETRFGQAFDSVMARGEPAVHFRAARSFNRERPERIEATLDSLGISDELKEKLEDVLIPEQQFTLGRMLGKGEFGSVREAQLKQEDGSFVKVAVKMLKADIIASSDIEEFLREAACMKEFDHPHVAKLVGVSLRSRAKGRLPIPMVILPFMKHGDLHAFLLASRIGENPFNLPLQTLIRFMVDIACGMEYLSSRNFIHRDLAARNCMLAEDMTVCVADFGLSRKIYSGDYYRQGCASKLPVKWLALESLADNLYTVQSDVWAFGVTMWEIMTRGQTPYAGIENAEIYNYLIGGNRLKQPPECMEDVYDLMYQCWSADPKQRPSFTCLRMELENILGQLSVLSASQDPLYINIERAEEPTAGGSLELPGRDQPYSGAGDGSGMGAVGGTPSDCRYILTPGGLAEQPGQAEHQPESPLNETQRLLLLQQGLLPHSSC
Method: as §1

FLT3-ITD = experiment: ADP Glo Kinase assay; format: biochemical; settings: 1 µM compound
Method: (§2) Inhibition of CDKs and FLT3 were determined using ADP Glo Kinase assays, as previously described in International Patent Publication No WO 2017/020065.

MV4-11 = experiment: Proliferation assay (MTT, leukaemia cancer cell line); format: cell-based; settings: Homo sapiens; 1 µM compound, MV4-11 cells
Source text: Compounds from Example 1 were subjected to standard resazurin and MTT assays on solid tumour and leukaemia cancer cell lines, respectively, as previously reported (Wang S et al., J Med Chem 47:1662-1675, 2004 and Diab S et al., CheMedChem 9:962-972, 2014).

CDK2E = CDK2E (Homo sapiens, UniProt P24941); experiment: ADP Glo Kinase assay; format: biochemical; settings: 1 µM compound; read-out: % Residual enzymatic activity at 1 µM CDK2E
Method: as §2

T2 sequence (P08581 25-1390): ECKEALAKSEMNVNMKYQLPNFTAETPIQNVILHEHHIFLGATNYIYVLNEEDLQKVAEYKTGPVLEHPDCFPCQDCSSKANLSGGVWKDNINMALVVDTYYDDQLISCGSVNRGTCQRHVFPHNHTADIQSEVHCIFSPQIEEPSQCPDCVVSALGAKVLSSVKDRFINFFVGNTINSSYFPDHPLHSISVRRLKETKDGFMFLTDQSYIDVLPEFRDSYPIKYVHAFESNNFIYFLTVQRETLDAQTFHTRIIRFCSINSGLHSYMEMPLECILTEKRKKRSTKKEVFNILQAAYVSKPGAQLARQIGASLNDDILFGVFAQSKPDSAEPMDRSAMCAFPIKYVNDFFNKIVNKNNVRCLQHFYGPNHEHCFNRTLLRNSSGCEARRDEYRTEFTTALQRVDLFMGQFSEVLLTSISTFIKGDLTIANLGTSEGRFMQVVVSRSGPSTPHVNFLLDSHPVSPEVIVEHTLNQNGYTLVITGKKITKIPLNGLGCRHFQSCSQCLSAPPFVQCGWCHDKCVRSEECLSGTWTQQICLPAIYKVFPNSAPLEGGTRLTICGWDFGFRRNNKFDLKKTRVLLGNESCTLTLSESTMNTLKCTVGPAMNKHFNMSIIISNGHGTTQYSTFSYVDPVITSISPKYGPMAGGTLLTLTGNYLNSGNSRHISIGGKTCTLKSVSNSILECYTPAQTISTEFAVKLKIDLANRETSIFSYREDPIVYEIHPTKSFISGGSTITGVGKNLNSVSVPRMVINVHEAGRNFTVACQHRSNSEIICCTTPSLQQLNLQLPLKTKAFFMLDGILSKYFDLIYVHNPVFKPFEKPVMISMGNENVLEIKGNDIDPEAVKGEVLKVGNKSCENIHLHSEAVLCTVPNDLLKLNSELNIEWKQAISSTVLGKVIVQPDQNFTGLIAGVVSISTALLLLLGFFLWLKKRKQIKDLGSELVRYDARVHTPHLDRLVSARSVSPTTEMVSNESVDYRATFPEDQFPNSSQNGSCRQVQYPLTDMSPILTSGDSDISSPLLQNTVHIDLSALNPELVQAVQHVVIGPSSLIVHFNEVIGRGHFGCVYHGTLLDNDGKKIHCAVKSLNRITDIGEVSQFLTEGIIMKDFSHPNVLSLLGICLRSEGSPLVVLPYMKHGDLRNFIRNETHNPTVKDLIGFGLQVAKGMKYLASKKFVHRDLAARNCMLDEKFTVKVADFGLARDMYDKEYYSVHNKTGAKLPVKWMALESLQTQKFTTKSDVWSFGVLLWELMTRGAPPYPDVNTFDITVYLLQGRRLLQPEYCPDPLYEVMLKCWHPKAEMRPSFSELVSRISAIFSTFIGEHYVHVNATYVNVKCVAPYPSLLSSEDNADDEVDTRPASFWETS

SMILES	remaining activity at 1 µM (AXL) [%]	remaining activity at 1 µM (MET) [%]	remaining activity at 1 µM (Mer) [%]	remaining activity at 1 µM (TYRO3) [%]	% Residual enzymatic activity at 1 µM FLT3-ITD (FLT3-ITD) [%]	activity at 1 µM (MV4-11) [%]	remaining activity at 1 µM (CDK2E) [%]
Nc1ncnc(Oc2ccc(NC(=O)c3cccn(-c4ccc(OC(F)(F)F)cc4)c3=O)cc2F)c1F [Cmpd 8, N-(4-((6-amino-5-fluoropyrimidin-4-yl)oxy)-3-fluorophenyl)-2-oxo-1-(4-(trifluoromethoxy)phenyl)-1,2-dihydropyridine-3-carboxamide]	112	85	100	111	91	–	–
Nc1ncnc(Oc2ccc(NC(=O)c3cccn(-c4ccc(C(F)(F)F)cc4)c3=O)cc2F)c1F [Cmpd 9, N-(4-((6-amino-5-fluoropyrimidin-4-yl)oxy)-3-fluorophenyl)-2-oxo-1-(4-(trifluoromethyl)phenyl)-1,2-dihydropyridine-3-carboxamide]	105	64	85	106	88	–	–
Nc1ncnc(Oc2ccc(NC(=O)c3cccn(-c4ccc(F)cc4)c3=O)c(F)c2F)c1Cl [Cmpd 13, N-(4-((6-amino-5-chloropyrimidin-4-yl)oxy)-2,3-difluorophenyl)-1-(4-fluorophenyl)-2-oxo-1,2-dihydropyridine-3-carboxamide]	67	94	91	87	74	7	–
Nc1ncnc(Oc2cc(F)c(NC(=O)c3cccn(-c4ccc(F)cc4)c3=O)cc2F)c1Cl [Cmpd 21, N-(4-((6-amino-5-chloropyrimidin-4-yl)oxy)-2,5-difluorophenyl)-1-(4-fluorophenyl)-2-oxo-1,2-dihydropyridine-3-carboxamide]	3	5	30	3	22	3	–
Nc1ncnc(Oc2ccc(NC(=O)c3cccn(-c4ccc(Cl)cc4)c3=O)cc2F)c1F [Cmpd 34, N-(4-((6-amino-5-fluoropyrimidin-4-yl)oxy)-3-fluorophenyl)-1-(4-chlorophenyl)-2-oxo-1,2-dihydropyridine-3-carboxamide]	50	91	103	69	–	3	97
Cc1ccc(-n2cccc(C(=O)Nc3ccc(Oc4ncnc(N)c4F)c(F)c3)c2=O)cc1 [Cmpd 35, N-(4-((6-amino-5-fluoropyrimidin-4-yl)oxy)-3-fluorophenyl)-2-oxo-1-(p-tolyl)-1,2-dihydropyridine-3-carboxamide]	70	60	99	14	–	6	97
Nc1ncnc(Nc2ccc(NC(=O)c3cccn(-c4ccc(F)cc4)c3=O)cc2F)c1Cl [Cmpd 36, N-(4-((6-amino-5-chloropyrimidin-4-yl)amino)-3-fluorophenyl)-1-(4-fluorophenyl)-2-oxo-1,2-dihydropyridine-3-carboxamide]	97	87	99	70	–	4	96
Nc1ncnc(Oc2ccc(NC(=O)c3cccn(-c4ccc(F)cc4)c3=O)c(Cl)c2)c1Cl [Cmpd 37, N-(4-((6-amino-5-chloropyrimidin-4-yl)oxy)-2-chlorophenyl)-1-(4-fluorophenyl)-2-oxo-1,2-dihydropyridine-3-carboxamide]	78	88	87	39	–	48	96
Nc1ncnc(Oc2ccc(NC(=O)c3cccn(-c4ccc(F)cc4)c3=O)c(Cl)c2)c1F [Cmpd 38, N-(4-((6-amino-5-fluoropyrimidin-4-yl)oxy)-2-chlorophenyl)-1-(4-fluorophenyl)-2-oxo-1,2-dihydropyridine-3-carboxamide]	69	68	92	50	–	43	90

Source: patent US20230339889A1, “DERIVATIVES OF 2-OXO-N-(4-(PYRIMIDIN-4-YLOXY/THIO)PHENYL)-1,2-DIHYDROPYRIDINE-3-CARBOXAMIDE FOR USE AS PROTEIN KINASE INHIBITORS FOR THERAPY” (AUCENTRA THERAPEUTICS PTY LTD, priority 2020, published 2023)
